Laboratory results as given in PubChem BioAssay (NCI).
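Where inhibition never reached the appropriate level, the endpoint shown equals the highest concentration tested. Otherwise, values were interpolated linearly from a five-concentration, 48-hour dose response in 96-well plates. The concentration for 50% growth inhibition is given as GI50. At the TGI there is no net growth.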

Key:
Assay in all cases: NCI tumour cell line growth inhibition, 48 h
MDA-MB-435 = system: MDA-MB-435
HCT-116 colon = system: HCT-116 colon
SF-268 CNS = system: SF-268 CNS
NCI-H460 lung = system: NCI-H460 lung
KM12 colon = system: KM12 colon
COLO 205 colon = system: COLO 205 colon
SF-295 CNS = system: SF-295 CNS
PC-3 prostate = system: PC-3 prostate
HS 578T breast = system: HS 578T breast
MDA-MB-231 breast = system: MDA-MB-231 breast

SMILES | TGI (MDA-MB-435) | TGI (HCT-116 colon) | TGI (SF-268 CNS) | TGI (NCI-H460 lung) | TGI (KM12 colon) | TGI (COLO 205 colon) | TGI (SF-295 CNS) | TGI (PC-3 prostate) | TGI (HS 578T breast) | TGI (MDA-MB-231 breast) | GI50 (MDA-MB-435) | GI50 (HCT-116 colon) | GI50 (SF-268 CNS) | GI50 (NCI-H460 lung) | GI50 (KM12 colon) | GI50 (COLO 205 colon) | GI50 (SF-295 CNS) | GI50 (PC-3 prostate) | GI50 (HS 578T breast) | GI50 (MDA-MB-231 breast)
CCCCNC(=S)N/N=C/c1cccc(C)n1 | > 100 µM | 38.8 µM | > 100 µM | > 100 µM | > 100 µM | > 100 µM | > 100 µM | > 100 µM | > 100 µM | > 100 µM | – | – | – | – | – | – | – | – | – | –
C/C1=C\CC[C@@]2(C)O[C@@H]2C[C@@H](C2(C)CO2)CC/C(C)=C/CC1 (stereo not given in full) | 46.4 µM | 45.5 µM | 33.9 µM | 37.8 µM | 34.3 µM | 33.2 µM | 51 µM | 82.2 µM | 46.3 µM | 47.3 µM | – | – | – | – | – | – | – | – | – | –
Cc1cc2c([N+](=O)[O-])cc3c(c2o1)C(=O)C=CC3=O | 7.81 µM | 10.5 µM | 32.1 µM | 36.7 µM | 32.2 µM | 4.88 µM | 23 µM | 30.7 µM | 54.8 µM | 40.2 µM | – | – | – | – | – | – | – | – | – | –
Cc1ccc(OCCn2cc(Nc3ccccc3)c(=O)n(CCOc3ccc(C)cc3)c2=O)cc1 | > 100 µM | > 100 µM | > 100 µM | > 100 µM | > 100 µM | > 100 µM | > 100 µM | > 100 µM | > 100 µM | > 100 µM | – | – | – | – | – | – | – | – | – | –
COC(=O)CCc1cc(OC)c2c(c1)[C@H](C(=O)OC)[C@@H](c1ccc(O)c(OC)c1)O2 | 39.5 µM | > 100 µM | > 100 µM | > 100 µM | > 100 µM | > 100 µM | > 100 µM | > 100 µM | > 100 µM | > 100 µM | – | – | – | – | – | – | – | – | – | –
O=C(Oc1cc(=O)c(OC(=O)c2ccccc2)co1)c1ccccc1 | > 100 µM | > 100 µM | > 100 µM | > 100 µM | > 100 µM | > 100 µM | > 100 µM | > 100 µM | > 100 µM | > 100 µM | – | – | – | – | – | – | – | – | – | –
COc1cc2nc(-c3cccs3)oc(=O)c2cc1OC | > 100 µM | > 100 µM | > 100 µM | > 100 µM | > 100 µM | > 100 µM | > 100 µM | > 100 µM | > 100 µM | > 100 µM | – | – | – | – | – | – | – | – | – | –
CNc1ncnc2c1cnn2COCC(O)CO (stereo not given) | > 100 µM | > 100 µM | > 100 µM | > 100 µM | > 100 µM | > 100 µM | > 100 µM | > 100 µM | > 100 µM | > 100 µM | – | – | – | – | – | – | – | – | – | –
Nc1nc(Cl)cc(NCC2(CO)CCC(CCc3ccccc3)C2)n1 (stereo not given) | 28.3 µM | 21.9 µM | 35.6 µM | 27.3 µM | 30.1 µM | 27.3 µM | 21.8 µM | 43.4 µM | 52.7 µM | 33.6 µM | – | – | – | – | – | – | – | – | – | –
O=C(CNc1c(Cl)cccc1Cl)NC1C=Cc2ccc(S(=O)(=O)Nc3c(Cl)cccc3Cl)cc2C1=O (stereo not given) | > 100 µM | > 100 µM | > 100 µM | > 100 µM | > 100 µM | > 100 µM | > 100 µM | > 100 µM | > 100 µM | > 100 µM | – | – | – | – | – | – | – | – | – | –
COc1cc(-c2cc(=O)c3cc4c(=O)cc(-c5cc(OC)c(OC)c(OC)c5)oc4cc3o2)cc(OC)c1OC | > 100 µM | > 100 µM | > 94.7 µM | > 100 µM | > 100 µM | > 100 µM | 40.6 µM | > 100 µM | 97.2 µM | > 64.5 µM | – | – | – | – | – | – | – | – | – | –
CC(=O)c1cccn1/C=C(\OC(=O)OC(C)(C)C)c1ccc[nH]1 | > 100 µM | > 100 µM | > 100 µM | > 100 µM | > 100 µM | > 100 µM | > 100 µM | > 100 µM | > 100 µM | > 100 µM | – | – | – | – | – | – | – | – | – | –
NC(CC1=CS(=O)(=O)c2ccc(Cl)cc21)C(=O)O (stereo not given) | > 100 µM | > 100 µM | > 100 µM | > 100 µM | > 100 µM | > 100 µM | > 100 µM | > 100 µM | > 100 µM | > 100 µM | – | – | – | – | – | – | – | – | – | –
COc1cc2cc(Oc3ccc(NC(=O)c4cc(C(F)(F)F)cc(C(F)(F)F)c4)cc3)c(C)nc2cc1OC | > 50 µM | > 50 µM | > 50 µM | > 50 µM | > 50 µM | > 50 µM | > 50 µM | > 50 µM | > 50 µM | > 50 µM | > 50 µM | 1560 nM | > 50 µM | 2160 nM | 2790 nM | 3.05 µM | 1640 nM | 1660 nM | 9.13 µM | 2550 nM
COc1nc2ncc([C@@H](OC(C)=O)[C@@H](COC(C)=O)OC(C)=O)nc2c(=O)[nH]1 | > 100 µM | > 100 µM | > 100 µM | > 100 µM | > 100 µM | > 100 µM | > 100 µM | > 100 µM | > 100 µM | > 100 µM | – | – | – | – | – | – | – | – | – | –
COC(=O)c1cc2c(cc1CC1Cc3cc4c(cc3C1)CCC4)CCC2 | > 100 µM | > 100 µM | > 100 µM | > 100 µM | > 100 µM | > 100 µM | > 100 µM | > 100 µM | > 100 µM | > 100 µM | – | – | – | – | – | – | – | – | – | –
